Where two headings read alike, the source gives them in different places.
Experiments:
PSMA(+) PC3-PIP cells = settings: cited from earlier work
PSMA [1] = biological target: T1, PSMA (Homo sapiens, UniProt Q04609); experiment: PSMA inhibition, IC50 determination
PSMA [2] = biological target: T1, PSMA; experiment: Mode of inhibition study; settings: reversible, slowly reversible, or irreversible

T1 sequence (Q04609 whole entry): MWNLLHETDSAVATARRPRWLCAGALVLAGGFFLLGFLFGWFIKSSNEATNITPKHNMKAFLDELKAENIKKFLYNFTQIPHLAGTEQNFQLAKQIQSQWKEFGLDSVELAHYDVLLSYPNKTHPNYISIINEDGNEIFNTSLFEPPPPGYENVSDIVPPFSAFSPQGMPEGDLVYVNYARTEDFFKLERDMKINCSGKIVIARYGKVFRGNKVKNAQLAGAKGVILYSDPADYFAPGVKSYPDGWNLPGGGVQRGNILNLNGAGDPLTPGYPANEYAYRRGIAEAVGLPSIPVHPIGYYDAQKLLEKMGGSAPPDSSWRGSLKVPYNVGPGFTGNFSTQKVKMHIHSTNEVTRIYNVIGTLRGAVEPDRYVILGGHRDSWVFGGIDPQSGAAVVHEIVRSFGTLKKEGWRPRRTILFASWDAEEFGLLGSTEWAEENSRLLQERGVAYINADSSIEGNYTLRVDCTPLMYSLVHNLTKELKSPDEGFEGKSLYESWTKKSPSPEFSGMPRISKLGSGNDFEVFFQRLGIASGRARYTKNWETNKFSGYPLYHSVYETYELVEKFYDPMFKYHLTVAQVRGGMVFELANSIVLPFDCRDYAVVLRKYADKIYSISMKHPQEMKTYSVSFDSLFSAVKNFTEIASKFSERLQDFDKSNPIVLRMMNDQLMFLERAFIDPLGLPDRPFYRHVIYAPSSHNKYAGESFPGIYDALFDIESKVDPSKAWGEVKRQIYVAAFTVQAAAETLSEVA

SMILES | IC50 (PSMA [1]) [nM] | mode of binding to PSMA (PSMA [2]) | also measured
O=C(O)CC[C@H](NC(=O)N[C@@H](CSCc1ccc([18F])cc1)C(=O)O)C(=O)O [[^18F]DCFBC, N[N-[(S)-1,3-dicarboxypropyl]carbamoyl]-4-[^18F] fluorobenzyl-L-cysteine] |  |  | tumor uptake (PSMA(+) PC3-PIP cells; PSMA(+) PC3-PIP cells): 4.7%; tumor/blood ratio (PSMA(+) PC3-PIP cells; PSMA(+) PC3-PIP cells): 13
O=C(O)CCC(NC(=O)NC(CCCCNC(=O)c1ccc([18F])nc1)C(=O)O)C(=O)O (stereo not shown) [[^18F]DCFPyL, 2-(3-(1-carboxy-5-[(6-[^18F]-fluoropyridine-3-carbonyl)amino]pentyl)ureido)pentanedioic acid] |  |  | liver uptake (PSMA(+) PC3-PIP cells; 2 h): 2.14%; renal uptake (PSMA(+) PC3-PIP cells; 2 h): 15.7%; tumor uptake (PSMA(+) PC3-PIP cells; 2 h in PC3-PIP cells): 39.4%
NCCCCCC(=O)NCCCCCC(=O)N[C@@H](CCC(=O)N[C@H](CCCOP(=O)(O)NC(CCC(=O)O)C(=O)O)C(=O)O)C(=O)O (stereo partly drawn) [compound 3, 2-(((S)-((4R)-4-(4-(6-(6-Aminohexanamido)-hexanamido)-4-carboxybutanamido)-4-carboxybutoxy)-(hydroxy)phosphoryl)amino)pentanedioic Acid] | 7.8 |  | 
O=C(O)CC[C@H](NP(=O)(O)OCCC[C@H](NC(=O)CC[C@H](NC(=O)CCCCCNC(=O)c1ccc(F)cc1)C(=O)O)C(=O)O)C(=O)O [compound 5] | 0.4 | irreversible | 
O=C(O)CCC(NP(=O)(O)OCCC[C@@H](NC(=O)CC[C@H](NC(=O)CCCCCNC(=O)CCCCCNC(=O)c1ccc(F)cc1)C(=O)O)C(=O)O)C(=O)O (stereo partly drawn) [compound 6, 2-(((S)-(((22R)-17,22-Dicarboxy-1-(4-fluoro-phenyl)-1,8,15,20-tetraoxo-2,9,16,21-tetraazapentacosan-25-yl)oxy)(hydroxy)phosphoryl)amino)pentanedioic Acid] | 0.9 | irreversible | 

Source: publication PMC6016545 (Journal of medicinal chemistry, 2016)
